Test results from patent US4544660A, “Pharmaceutically active tropanes” (Beecham Group p.l.c., priority 1978, dated 1985).

Experiments:
Format in all cases: in vivo
Dopamine Receptor [1] = experiment: Inhibition of apomorphine induced stereotype behaviour in the rat; conditions: s.c., apomorphine induced, complete inhibition, IA(x) = inactive at dose in brackets
Text: (§1) I. Dopamine Receptor Blocking Activity in the Central Nervous System
(a) Inhibition of apomorphine induced stereotype behaviour in the rat
(method of Ernst (1967), Psychopharmacologia (Berl.) 10 316-323).

Dopamine Receptor [2] = experiment: Inhibition of apomorphine induced climbing in the mouse; conditions: p.o., apomorphine 1 mg/kg s.c., complete inhibition
Description: as §1
(b) Inhibition of apomorphine induced climbing in the mouse
The test is based on that described by Protais, P., Constantin, J. and Schwartz J.C. (1976), Psychopharmacology, 50, 1-6.
Apomorphine 1 mg/kg s.c. induces mice to climb the wall of a wire cage (inverted food hopper--11×7.5×18 cm high). Mice acclimatised in their home cages in groups of 5 are placed under the hoppers immediately after the injection of apomorphine 1 mg/kg s.c. At 10,20 and 30 minutes after injection climbing behaviour is scored. The mice are observed for 30 seconds and scored according to the position they spend the majority of time in, score 0--four paws on floor of cage; score 1--fore paws only on walls; score 2--all paws on wall of cage. The scores at all 3 times and for each mouse are summed and mice drug treated orally compared to mice receiving apomorphine only. A saline only treated group is also included and any score, generally <5% of maximum taken into account.

intragastric pressure = experiment: Increase in intragastric pressure in the rat; parameters: III(a) Increase in Intragastric Pressure Dose (minimum dose for activity): unit not given here; conditions: s.c., 40 minute period after administration; for minimal effective dose: sc, 40 min, read-out: III(a) Increase in Intragastric Pressure Dose (minimum dose for activity)
Description: (a) Increase in intragastric pressure in the rat
Intragastric pressure changes were recorded from previously starved conscious but restrained rats using a saline filled catheter inserted into the lumen of the stomach via a permanent gastric fistula. The catheter was connected to a physiological pressure transducer and pressure changes recorded on a hot wire pen recorder. In each animal a pre-dose period of 40 minutes was allowed to obtain a measure of spontaneous activity. An index of activity was obtained by measuring the average height of pressure waves during 10 minute periods. Values for 4 such periods were obtained during assessment of spontaneous activity and for the 40 minute period after the subcutaneous administration of the compounds. Students `t` test was applied to the difference in average values obtained for spontaneous and post-compound activity.

vomiting response = experiment: Anti-emetic activity in the dog (apomorphine induced vomiting); conditions: Canis lupus familiaris, 30 min before apomorphine HCl 0.1 mg/kg s.c.; for ED100: s.c., complete inhibition, read-out: II Anti-Emetic Activity Dose, Complete Inhibition
Description: II. Anti-emetic activity in the dog
Compounds were administered subcutaneously 30 minutes prior to administration of a standard dose of apomorphine HCl (0.1 mg/kg subcutaneously) and the vomiting response compared to that obtained when the same animals were dosed with apomorphine HCl and vehicle only.

gastric emptying = experiment: Increase in gastric emptying: reversal of apomorphine induced delay in gastric emptying in the rat; parameters: key to III(b) Increase in Gastric Emptying: IA: inactive at the dose in the brackets, mg/Kg s.c; conditions: 10 mg/kg s.c.; for III(b) Increase in Gastric Emptying: apomorphine HCl 5 mg/kg s.c. induced delay
Description: (b) Increase in gastric emptying: reversal of apomorphine induced delay in gastric emptying in the rat
Rats equipped with chromic gastric fistulae were used and it was through this that 5 ml of a test meal (5 ml phosphate buffer at pH 9) was administered and recovered. The % recovery of the standard meal after remaining in the stomach for 10 minutes was taken as an index of gastric emptying. Delay in gastric emptying was induced by the administration of apomorphine HCl (5 mg/kg subcutaneously) which was given 15 minutes prior to the subcutaneous administration of the compound. The % recoveries of the test meal were determined at 15-25 and 45-55 minutes post-dosing with the compound and compared with vehicle only dosed animals set up simultaneously. Six animals were used for each group.

COc1cc(N)c(Cl)cc1C(=O)N[C@H]1C[C@H]2CCC[C@@H](C1)N2C [Compound 21, 4-amino-5-chloro-2-methoxy-N-(3'α-[9'-methyl-9'-azabicyclo[3.3.1]nonyl])benzamide]
I(a) Dose Inhibiting Stereotype Behaviour (dose for complete inhibition) (Dopamine Receptor [1]): IA(50) | I(b) Anti-Climbing Activity Dose, Complete Inhibition (Dopamine Receptor [2]): 10 mg/kg | minimal effective dose (intragastric pressure): 5 mg/kg

COc1cc(N)c(Cl)cc1C(=O)N[C@@H]1C[C@H]2CC[C@@H](C1)N2Cc1ccc(Cl)cc1 [Compound 16, 4amino-5-chloro-2-methoxy-N-(3β-[8'[4"chlorobenzyl]-8'-azabicyclo[3.2.1]octyl])-benzamide]
I(b) Anti-Climbing Activity Dose, Complete Inhibition (Dopamine Receptor [2]): 2 mg/kg

CCN1[C@@H]2CC[C@H]1C[C@H](NC(=O)c1cc(Cl)c(N)cc1OC)C2 [Compound 23, 4-amino-5-chloro-2-methoxy-N-(3'β-[8'-ethyl-8'-azabicyclo[3.2.1]octyl])benzamide]
I(a) Dose Inhibiting Stereotype Behaviour (dose for complete inhibition) (Dopamine Receptor [1]): IA(25) | I(b) Anti-Climbing Activity Dose, Complete Inhibition (Dopamine Receptor [2]): IA (inactive at 10 mg/Kg p.o.) | ED100 (vomiting response): 1.6 mg/kg | minimal effective dose (intragastric pressure): 1 to 10 mg/kg | III(b) Increase in Gastric Emptying (gastric emptying): 25%

COc1cc(N)c(Cl)cc1C(=O)N[C@@H]1C[C@H]2CC[C@@H](C1)N2C1CCCCC1 [Compound 31, 4-amino-5-chloro-2-methoxy-N-(3'β-[8'-cyclohexyl-8-azabicyclo[3.2.1]octyl])benzamide]
I(b) Anti-Climbing Activity Dose, Complete Inhibition (Dopamine Receptor [2]): IA (inactive at 10 mg/Kg p.o.) | ED100 (vomiting response): 0.25 mg/kg

COc1cc(N)c(Cl)cc1C(=O)N[C@H]1C[C@H]2CCC[C@@H](C1)N2Cc1ccccc1 [Compound 11, 4-amino-5-chloro-2-methoxy-N-(3'α-[9'-benzyl-9'-azabicyclo-[3,3,1]-nonyl])-benzamide]
I(a) Dose Inhibiting Stereotype Behaviour (dose for complete inhibition) (Dopamine Receptor [1]): IA(50) | I(b) Anti-Climbing Activity Dose, Complete Inhibition (Dopamine Receptor [2]): IA (inactive at 10 mg/Kg p.o.) | minimal effective dose (intragastric pressure): 1 mg/kg

COc1cc(N)c(Cl)cc1C(=O)N[C@@H]1C[C@H]2CC[C@@H](C1)[N+]2(C)Cc1ccccc1 (stereo partly drawn) [Compound 10, 4-Amino-5-chloro-2-methoxy-N-(3'β-[8'-benzyl]-8'-azabicyclo[3.2.1]octyl)-benzamide methobromide]
I(b) Anti-Climbing Activity Dose, Complete Inhibition (Dopamine Receptor [2]): IA(2) | minimal effective dose (intragastric pressure): 0.25 mg/kg

COc1ccc(S(N)(=O)=O)cc1C(=O)N[C@@H]1C[C@H]2CC[C@@H](C1)N2Cc1ccccc1 [Compound 8, 5-Sulphamoyl-2-methoxy-N-(3'β-[8'-benzyl]-8'-azabicyclo-[3.2.1]-octyl)-benzamide]
I(b) Anti-Climbing Activity Dose, Complete Inhibition (Dopamine Receptor [2]): IA (inactive at 10 mg/Kg p.o.) | ED100 (vomiting response): 0.1 mg/kg | III(a) Increase in Intragastric Pressure Dose (minimum dose for activity) (intragastric pressure): IA(5)

COc1ccccc1C(=O)N[C@@H]1C[C@H]2CC[C@@H](C1)N2Cc1ccccc1 [Compound 9, 2-Methoxy-N-(3'β-[8'-benzyl-8'-azabicyclo-[3.2.1]-octyl])-benzamide]
I(b) Anti-Climbing Activity Dose, Complete Inhibition (Dopamine Receptor [2]): 10 mg/kg | ED100 (vomiting response): 0.1 mg/kg

COc1cc(N)c(Cl)cc1C(=O)N[C@@H]1C[C@H]2CC[C@@H](C1)N2C(C)C [Compound 25, 4-amino-5-chloro-2-methoxy-N-(3'β-[8'-iso-propyl-8'-azabicyclo[3.2.1]-octyl])benzamide]
I(a) Dose Inhibiting Stereotype Behaviour (dose for complete inhibition) (Dopamine Receptor [1]): IA(25) | I(b) Anti-Climbing Activity Dose, Complete Inhibition (Dopamine Receptor [2]): IA (inactive at 10 mg/Kg p.o.) | ED50 (vomiting response; sc, ED50, read-out: II Anti-Emetic Activity Dose, ED50): 0.8 mg/kg | minimal effective dose (intragastric pressure): 5 mg/kg | III(b) Increase in Gastric Emptying (gastric emptying): IA

CCCN1[C@@H]2CC[C@H]1C[C@H](NC(=O)c1cc(Cl)c(N)cc1OC)C2 [Compound 24, 4-amino-5-chloro-2-methoxy-N-(3'β-[8'-n-propyl-8'-azabicyclo[3.2.1]-octyl])benzamide]
I(a) Dose Inhibiting Stereotype Behaviour (dose for complete inhibition) (Dopamine Receptor [1]): IA(25) | I(b) Anti-Climbing Activity Dose, Complete Inhibition (Dopamine Receptor [2]): IA (inactive at 10 mg/Kg p.o.) | ED100 (vomiting response): 0.4 mg/kg | minimal effective dose (intragastric pressure): 5 to 10 mg/kg | III(b) Increase in Gastric Emptying (gastric emptying): IA(25)

COc1cc(N)c(Cl)cc1C(=O)N[C@H]1C[C@H]2CC[C@@H](C1)N2Cc1ccccc1 [Compound 3, 4-amino-5-chloro-2-methoxy-N-(3',α-[8'-benzyl]nortropyl)benzamide]
I(a) Dose Inhibiting Stereotype Behaviour (dose for complete inhibition) (Dopamine Receptor [1]): 50 mg/kg | ED100 (vomiting response): 0.05 mg/kg

COc1cc(N)c(Cl)cc1C(=O)N[C@@H]1C[C@H]2CCC[C@@H](C1)N2C [Compound 22, 4-amino-5-chloro-2-methoxy-N-(3'β-[9'-methyl-9'-azabicyclo[3.3.1]-nonyl])-benzamide]
I(a) Dose Inhibiting Stereotype Behaviour (dose for complete inhibition) (Dopamine Receptor [1]): IA(25) | I(b) Anti-Climbing Activity Dose, Complete Inhibition (Dopamine Receptor [2]): IA (inactive at 10 mg/Kg p.o.) | minimal effective dose (intragastric pressure): 1 mg/kg | III(b) Increase in Gastric Emptying (gastric emptying): IA(25)

COc1cc(N)c(Cl)cc1C(=O)N[C@@H]1C[C@H]2CC[C@@H](C1)N2CC(C)C [Compound 28, 4-amino-5-chloro-2-methoxy-N-(3'β-[8'-isobutyl-8'-azabicyclo-[3.2.1]-octyl])-benzamide]
ED100 (vomiting response): 0.2 mg/kg | minimal effective dose (intragastric pressure): 5 mg/kg

CCOc1ccc(CN2[C@@H]3CC[C@H]2C[C@H](NC(=O)c2cc(Cl)c(N)cc2OC)C3)cc1 [Compound 15, 4amino-5-chloro-2-methoxy-N-(3β-[8'[4"ethoxybenzyl]-8'-azabicyclo[3.2.1]octyl])-benzamide]
I(b) Anti-Climbing Activity Dose, Complete Inhibition (Dopamine Receptor [2]): 10 mg/kg | ED100 (vomiting response): 0.1 mg/kg

COc1cc(N)c(Cl)cc1C(=O)N(C)[C@H]1C[C@H]2CC[C@@H](C1)N2Cc1ccccc1 [Compound 6, 4-Amino-5-chloro-2-methoxy-N-methyl-N-(3'α-[8'-benzyl-8'-azabicyclo[3.2.1]octyl])benzamide]
I(a) Dose Inhibiting Stereotype Behaviour (dose for complete inhibition) (Dopamine Receptor [1]): IA(50) | I(b) Anti-Climbing Activity Dose, Complete Inhibition (Dopamine Receptor [2]): IA (inactive at 10 mg/Kg p.o.) | minimal effective dose (intragastric pressure): 10 mg/kg | III(b) Increase in Gastric Emptying (gastric emptying): IA(50)

COc1cc(N)c(Cl)cc1C(=O)NC1CC2CCC(C1)N2Cc1ccccc1 (stereo not drawn) [Compound 2, 4-amino-5-chloro-2-methoxy-N-(3'α, 8-[8'-benzyl]8-azabicyclo[3,2,1]octyl)benzamide]
I(a) Dose Inhibiting Stereotype Behaviour (dose for complete inhibition) (Dopamine Receptor [1]): 10 mg/kg | ED100 (vomiting response): 0.0025 mg/kg | % Recovery of test meal, mean ± S.E. of mean, 15-25 mins. (gastric emptying; 15-25 mins post dosing, apomorphine, printed with **, apomorphine + vehicle 72.4 ± 5.1): 37.4 ± 6.7% | % Recovery of test meal, mean ± S.E. of mean, 45-55 mins. (gastric emptying; 45-55 mins post dosing, apomorphine, printed with ***, apomorphine + vehicle 60.7 ± 7.3): 18.3 ± 1.1%

C=CCN1[C@@H]2CC[C@H]1C[C@H](NC(=O)c1cc(Cl)c(N)cc1OC)C2 [Compound 32, 4-amino-5-chloro-2-methoxy-N-(3'β-[8'-ally-8-azabicyclo[3.2.1]octyl])benzamide]
ED100 (vomiting response): 0.2 mg/kg

COc1ccc(CN2[C@@H]3CC[C@H]2C[C@H](NC(=O)c2cc(Cl)c(N)cc2OC)C3)cc1 [Compound 14, 4amino-5-chloro-2-methoxy-N-(3β-[8'[4"methoxybenzyl]-8'-azabicyclo[3.2.1]octyl])-benzamide]
I(b) Anti-Climbing Activity Dose, Complete Inhibition (Dopamine Receptor [2]): 10 mg/kg | ED100 (vomiting response): 0.1 mg/kg
